14 compounds from patent publication US20230127559A1, “PEPTIDE ANALOGS AND USE OF SAME IN TREATING DISEASES, DISORDERS OR CONDITIONS ASSOCIATED WITH MUTANT P53 PROTEIN” (YEDA RESEARCH AND DEVELOPMENT CO. LTD., priority 2020, published 2023) can be followed below.

Like-named read-outs stand apart in the source and are kept apart here. Where a SMILES comes first, the peptide text is derived from it. Bridges are numbered along the chain shown (N, C = ends). [ ]: non-standard residue; d: D form. The star is where a group is joined. Docosanoyl = CCCCCCCCCCCCCCCCCCCCCC(=O)*; Oic = O=C(O)[C@@H]1C[C@@H]2CCCC[C@@H]2N1; Arachidoyl = CCCCCCCCCCCCCCCCCCCC(=O)*; Stearoyl = CCCCCCCCCCCCCCCCCC(=O)*; Palmitoyl = CCCCCCCCCCCCCCCC(=O)*; Tic = O=C(O)[C@@H]1Cc2ccccc2CN1; dTic = O=C(O)[C@H]1Cc2ccccc2CN1; Dab = NCC[C@H](N)C(=O)O Bounds are passed on as bounds.

Assay [1] concerns MIA PaCa-2 (pancreatic carcinoma) cells, p53R248W. In kind it is cell-based. As to conditions: 48 h. On the procedure:
(§1) Cells were cultured in 96 wells plates with 2500-4000 cells/well. Serial dilutions of different peptides were added and the plates incubated for additional 48 h at 37° C. Then medium was removed and cell viability was determined by staining the cells with crystal violet (0.05%) in methanol/PBS (1:5, v/v), for 10 min, followed by 3 washes with PBS. 10% acetic acid was added to each well for 10 min. OD was determined at 595 nm.
(§2) The IC50 tables presented in FIGS. 17-20 are from several representative experiments performed on cell lines expressing several p53 hotspot mutations, as well as control non-transformed cells: […]

The subject of assay [2] is WI38 (non-transformed fibroblasts) cells, wtp53. The assay is classed as cell-based. Conditions: 48 h. On the procedure:
as §1, §2

The subject of assay [3] is RXF-393 (renal carcinoma) cells, p53R175H. The assay is classed as cell-based, human. Conditions: for increase in efficacy relative to pCAP-553: FIG. 17, effect of fatty acid length; for IC50: 48 h. The procedure:
as §1
(§3) The IC50 tables presented in FIGS. 17-20 are from several representative experiments performed on cell lines expressing several p53 hotspot mutations, as well as control non-transformed cells:
Fatty acid position. Lead peptides were modified with N-terminal myristic acid to enable the penetration of peptides across the cell membrane. Although myristic acid is usually the default choice for cell permeability, additional options were explored of longer fatty acids and to examine the effect on peptide efficacy in terms of cancer cell killing. A standard crystal violet viability test was performed on human renal carcinoma RXF-393 cells, comparing the original pCAP-553, which has myristic acid (C14), with 4 derivative peptides modified with longer fatty acid chains: palmitic (C16), stearic (C18), […] (C20) and behenic (C22).

In assay [4] the test system is PC9 (lung carcinoma) cells, p53R248Q. The assay is classed as cell-based. As to conditions: 48 h. The procedure:
as §1, §2

Assay [5] deals with SW-480 (colon carcinoma) cells, p53R273H, P309S. The assay is classed as cell-based. As to conditions: 48 h. The procedure: as §1, §2
In assay [6] the test system is panel of cell lines expressing mutp53. The assay is classed as cell-based. The procedure:
as §1, §3
Proline residue position—Based on alanine scanning and molecular dynamics analyses, it is believed that the proline residue at the 6th position from the N-terminal is critical for the peptide's 3D structure and provides some rigidity required for peptide binding and activity. Therefore, it was hypothesized that a change in orientation or tetrahedral angle might increase the affinity of the peptide for p53. Six new peptides were synthesized replacing this proline residue with proline analogs (pCAPs 708-712, and pCAP-716, SEQ ID NOS: 6-10 and 14, respectively). This set of peptides was tested for activity on a panel of cell lines expressing mutp53, and compared it to pCAP-674 (SEQ ID NO: 27) and to the scrambled sequence peptides pCAP-721 (SEQ ID NO: 19) and pCAP-722 (SEQ ID NO: 20).

For assay [7], the system named is PANC1 (pancreatic carcinoma) cells, p53R273H. The assay is classed as cell-based. As to conditions: 48 h. The procedure:
as §1, §2

As to `CCCCCCCCCCCCCC(=O)N[C@@H](CCCNC(=N)N)C(=O)N[C@@H](CCCNC(=N)N)C(=O)N[C@@H](Cc1c[nH]cn1)C(=O)N[C@@H](CO)C(=O)N[C@H](C(=O)N1CCC[C@H]1C(=O)N[C@@H](Cc1c[nH]cn1)C(=O)N1CCC[C@H]1C(=O)N[C@@H](CC(=O)O)C(=O)O)[C@@H](C)O` [pCAP-250, myr-RRHSTPHPD], the half-inhibitory concentration (IC50) was 1 µM in assay [1] and greater than 40 µM in assay [2].

Take `CCCCCCCCCCCCCCCCCC(=O)N[C@@H](CCCNC(=N)N)C(=O)N[C@@H](CCCNC(=N)N)C(=O)N[C@@H](Cc1c[nH]cn1)C(=O)N[C@@H](CO)C(=O)N[C@@H](C(=O)N1CCC[C@H]1C(=O)N[C@@H](CCN)C(=O)N1CCC[C@H]1C(=O)N[C@@H](CC(=O)O)C(N)=O)C(C)C` [pCAP-674, str-RRHSvP(Dab)PD-NH2] (Stearoyl-RRHS[dV]P[Dab]PD-NH2): in assay [3], the “increase in efficacy relative to pCAP-553” value was “four-fold increase in efficacy”. Also, the concentration for half-maximal inhibition (IC50) is 0.21 µM in assay [4], 0.6 µM in assay [5] and 36 µM in assay [2].

Regarding `CCCCCCCCCCCCCCCCCCCC(=O)N[C@@H](CCCNC(=N)N)C(=O)N[C@@H](CCCNC(=N)N)C(=O)N[C@@H](Cc1c[nH]cn1)C(=O)N[C@@H](CO)C(=O)N[C@@H](C(=O)N1CCC[C@H]1C(=O)N[C@@H](CCN)C(=O)N1CCC[C@H]1C(=O)N[C@@H](CC(=O)O)C(N)=O)C(C)C` [pCAP-706, arc-RRHSvP(Dab)PD-NH2] (Arachidoyl-RRHS[dV]P[Dab]PD-NH2), the IC50 in assay [3] amounted to 0.4 µM; in assay [4], 0.26 µM; in assay [5] it was 0.8 µM; in assay [2], 15 µM.

For the compound `CCCCCCCCCCCCCCCCCCCCCC(=O)N[C@@H](CCCNC(=N)N)C(=O)N[C@@H](CCCNC(=N)N)C(=O)N[C@@H](Cc1c[nH]cn1)C(=O)N[C@@H](CO)C(=O)N[C@@H](C(=O)N1CCC[C@H]1C(=O)N[C@@H](CCN)C(=O)N1CCC[C@H]1C(=O)N[C@@H](CC(=O)O)C(N)=O)C(C)C` [pCAP-707, Beh-RRHSvP(Dab)PD-NH2] (Docosanoyl-RRHS[dV]P[Dab]PD-NH2), the IC50 in assay [3] was 1.5 µM; in assay [4] it was 1.5 µM; in assay [5], 3 µM; in assay [2], 12 µM.

For `CCCCCCCCCCCCCCCCCC(=O)N[C@@H](CCCNC(=N)N)C(=O)N[C@@H](CCCNC(=N)N)C(=O)N[C@@H](Cc1c[nH]cn1)C(=O)N[C@@H](CO)C(=O)N[C@@H](C(=O)N1CCC[C@@H]1C(=O)N[C@@H](CCN)C(=O)N1CCC[C@H]1C(=O)N[C@@H](CC(=O)O)C(N)=O)C(C)C` [pCAP-708, str-RRHSvp(Dab)PD-NH2] (Stearoyl-RRHS[dV][dP][Dab]PD-NH2), the IC50 was 0.5 µM in assay [1], 32 µM in assay [2] and 0.12 to 1.3 µM in assay [6] (48 h). Moreover, the “activity in viability assays compared with other peptides (in words)” value was “consistently modestly improved activity over pCAP-674” in assay [6] and “highest activity” in assay [6] (listed as 708).

`CCCCCCCCCCCCCCCCCC(=O)N[C@@H](CCCNC(=N)N)C(=O)N[C@@H](CCCNC(=N)N)C(=O)N[C@@H](Cc1c[nH]cn1)C(=O)N[C@@H](CO)C(=O)N[C@@H](C(=O)N1[C@H](C(=O)N[C@@H](CCN)C(=O)N2CCC[C@H]2C(=O)N[C@@H](CC(=O)O)C(N)=O)C[C@@H]2CCCC[C@@H]21)C(C)C` [pCAP-711, str-RRHSv(Oic)(Dab)PD] (Stearoyl-RRHS[dV][Oic][Dab]PD-NH2; N-terminus and C-terminus assumed): the IC50 in assay [3] is 2.6 µM; in assay [4], 1.6 µM; in assay [5] it was 3 µM; in assay [2], greater than 40 µM.

`CCCCCCCCCCCCCCCCCC(=O)N[C@@H](CCCNC(=N)N)C(=O)N[C@@H](CCCNC(=N)N)C(=O)N[C@@H](Cc1c[nH]cn1)C(=O)N[C@@H](CO)C(=O)N[C@@H](C(=O)N1Cc2ccccc2C[C@H]1C(=O)N[C@@H](CCN)C(=O)N1CCC[C@H]1C(=O)N[C@@H](CC(=O)O)C(N)=O)C(C)C` [pCAP-712, str-RRHSv(Tic)(Dab)PD-NH2] (Stearoyl-RRHS[dV][Tic][Dab]PD-NH2): the IC50 is 0.6 µM in assay [3], 1 µM in assay [1], 1.2 µM in assay [4] and 1.5 µM in assay [5]. Moreover, the “activity in viability assays compared with other peptides (in words)” value in assay [6] is listed as “highest activity”.

Take `CCCCCCCCCCCCCCCCCC(=O)N[C@@H](CCCNC(=N)N)C(=O)N[C@@H](CCCNC(=N)N)C(=O)N[C@H]1CCCCNC(=O)[C@H](CC(=O)O)NC(=O)[C@@H]2CCCN2C(=O)[C@H](CCN)NC(=O)[C@@H]2CCCN2C(=O)[C@@H](C(C)C)NC(=O)[C@H](CO)NC1=O` [pCAP-714, str-RRKSvP(Dab)PD-Cyc] (Stearoyl-RRKS[dV]P[Dab]PD; lactam 3-C): the IC50 was 0.57 µM in assay [3], 0.8 µM in assay [4], 1.09 µM in assay [5] and greater than 40 µM in assay [2].

`CCCCCCCCCCCCCCCCCC(=O)N[C@@H](CCCNC(=N)N)C(=O)N[C@@H](CCCNC(=N)N)C(=O)N[C@H]1CCCCNC(=O)[C@H](CC(=O)O)NC(=O)[C@@H]2CCCN2C(=O)[C@H](CCN)NC(=O)[C@@H]2CCCN2C(=O)[C@@H](C(C)C)NC(=O)[C@H](CO)NC(=O)[C@H](Cc2c[nH]cn2)NC1=O` [pCAP-715, str-RRKHSvP(Dab)PD-Cyc] (Stearoyl-RRKHS[dV]P[Dab]PD; lactam 3-C): the IC50 in assay [3] was 0.48 µM; in assay [4], 0.25 µM; in assay [5], 0.54 µM; in assay [2], greater than 40 µM.

Regarding `CCCCCCCCCCCCCCCCCC(=O)N[C@@H](CCCNC(=N)N)C(=O)N[C@@H](CCCNC(=N)N)C(=O)N[C@@H](Cc1c[nH]cn1)C(=O)N[C@@H](CO)C(=O)N[C@@H](C(=O)N1CCC[C@H]1C(=O)N[C@@H](CCN)C(=O)N1CCC[C@H]1C(=O)N[C@@H](CC(=O)O)C(N)=O)C(C)C` [pCAP-718, str-RRHSvP(Dab)PD-NH2 ion ex] (Stearoyl-RRHS[dV]P[Dab]PD-NH2), the half-maximal inhibitory concentration (IC50) was 0.37 µM in assay [3], 2.21 µM in assay [7], 0.72 µM in assay [4] and greater than 40 µM in assay [2].

For `CCCCCCCCCCCCCCCCCC(=O)N[C@@H](CCCNC(=N)N)C(=O)N[C@@H](CCCNC(=N)N)C(=O)N[C@@H](Cc1c[nH]cn1)C(=O)N[C@@H](CO)C(=O)N[C@H](CCCCN)C(=O)N1Cc2ccccc2C[C@@H]1C(=O)N[C@@H](CCN)C(=O)N1CCC[C@H]1C(=O)N[C@@H](CC(=O)O)C(N)=O` [pCAP-719, str-RRHSk(tic)(Dab)PD-NH2] (Stearoyl-RRHS[dK][dTic][Dab]PD-NH2), the IC50 in assay [3] is 0.46 µM; in assay [7], 2.18 µM; in assay [4], 0.57 µM; in assay [2], 29 µM.

As to `CCCCCCCCCCCCCCCCCC(=O)N[C@@H](CCCNC(=N)N)C(=O)N[C@@H](CCCNC(=N)N)C(=O)N[C@@H](Cc1c[nH]cn1)C(=O)N[C@@H](CO)C(=O)N[C@@H](C(=O)N1CCC[C@@H]1C(=O)N[C@@H](CCN)C(=O)N1CCC[C@H]1C(=O)N[C@H](CC(=O)O)C(=O)NCC(=O)N[C@@H](CCCNC(=N)N)C(=O)O)C(C)C` [pCAP-721, str-RRHSvp(Dab)PdGR] (Stearoyl-RRHS[dV][dP][Dab]P[dD]GR-OH; C-terminus assumed), the 50% inhibitory concentration (IC50) was 0.3 µM in assay [3], 0.3 µM in assay [1], 0.8 µM in assay [4] and 1.2 µM in assay [5]. The “activity in viability assays compared with other peptides (in words)” value in assay [6] is on record as “comparable activity to pCAP-717”.

Consider `CCCCCCCCCCCCCCCCCC(=O)N[C@@H](CCCNC(=N)N)C(=O)N[C@@H](CC(=O)O)C(=O)N1CCC[C@H]1C(=O)N[C@@H](Cc1c[nH]cn1)C(=O)N[C@@H](C(=O)N[C@@H](CO)C(=O)N1CCC[C@H]1C(=O)N[C@@H](CCCNC(=N)N)C(=O)N[C@@H](CCN)C(N)=O)C(C)C` [pCAP-723, str-RDPHvSPR(Dab)-NH2, reference compound] (Stearoyl-RDPH[dV]SPR[Dab]-NH2), for which the concentration for half-maximal inhibition (IC50) in assay [3], in assay [7], in assay [4] and in assay [2] was greater than 40 µM each time.

Consider “pam-RRHSvP(Dab)PD-NH2 (Palmitoyl-RRHS[dV]P[Dab]PD-NH2) [pCAP-673, pam—Palmitic]”, for which the “increase in efficacy relative to pCAP-553” value in assay [3] was “two-fold increase in efficacy”.

As usually defined, the IC50 is the concentration that gives 50% inhibition. Low readings indicate greater potency, high ones weaker potency.
